From PubChem BioAssay AID1996
Converted amounts (≈) assume the structure as drawn.

Conditions: buffer; pH 7.4; 200.0 µM

Point of comparison: `COc1ccc(NC(=O)CSc2cc(C)ccc2C)cn1`, solubility kinetic 45.1 µg/mL (≈ 149 µM). Against it:
- CCOc1ccc(NC(=O)NC2CCCCCCC2)cc1 — 50-fold lower, 0.9 µg/mL (≈ 3.1 µM)
- O=C(NCc1ccccc1)N1CCCC1 — not separable, > 30.6 µg/mL
- CCN1C(=O)c2cccc3c(N)ccc1c23 — not separable, > 31.8 µg/mL
- FC(c1nc2ccccc2[nH]1)C(F)(F)F (stereo not given) — not separable, > 32.7 µg/mL
- O=C(Cc1ccc(-c2ccccc2)cc1)Nc1ccccc1 — 27-fold lower, 1.7 µg/mL (≈ 5.92 µM)
- COc1ccc(-c2csc(Nc3ccccn3)n2)cc1 — lower, < 0.2 µg/mL
- Cc1[nH]c2ccccc2c1C(=O)C(=O)N1CCN(C)CC1 — not separable, > 42.8 µg/mL
- Clc1ccc(-c2csc(Nc3cccnc3)n2)cc1 — 150-fold lower, 0.3 µg/mL (≈ 1.04 µM)
- CCCC(=O)Nc1ccc(S(=O)(=O)Nc2nccs2)cc1 — within 1.5-fold, 30.4 µg/mL (≈ 93.4 µM)
- CC(C)(CN1CCCC1)NS(=O)(=O)c1ccccc1.Cl — higher, > 47.8 µg/mL
- CCC(C)NC(=O)c1ccc(CSCc2ccc(Cl)cc2)o1 (stereo not given) — 2-fold lower, 22.6 µg/mL (≈ 66.9 µM)
- O=C(NCCC1=CCCCC1)C1CCN(S(=O)(=O)N2CCCC2)CC1 — within 1.5-fold, 50.7 µg/mL (≈ 137 µM)
- CCCc1cc(=O)[nH]c(SCC(=O)Nc2ccc(C(=O)Nc3ccccc3OC)cc2)n1 — 6.7-fold lower, 6.7 µg/mL (≈ 14.8 µM)
- CCOC(=O)COc1ccc(S(=O)(=O)NC2CC2)cc1 — not separable, > 44.9 µg/mL
- COCCNc1nc(-c2cc(C)c(C)cc2C)cs1.Cl — within 1.5-fold, 35.4 µg/mL
- O=C(O)c1ccc(NC2CC(=O)N(Cc3ccccc3)C2=O)cc1 (stereo not given) — higher, > 48.7 µg/mL
- Cc1sc2c(c1C)C(=O)/C(=C\Nc1ccncc1)S(=O)(=O)N2C — 24-fold lower, 1.9 µg/mL (≈ 5.44 µM)
- C#CCN1c2ccccc2Sc2cccnc21 — 9.4-fold lower, 4.8 µg/mL (≈ 20.1 µM)
- OC(CN1CCC(Cc2ccccc2)CC1)C(F)(F)F (stereo not given) — not separable, > 43.1 µg/mL
- Cc1ccc2nc(NCc3ccccc3)c(C#N)cc2c1 — 16-fold lower, 2.8 µg/mL (≈ 10.2 µM)
- Cc1nc(SCC(=O)N2CCN(c3ccccn3)CC2)c(C#N)c(C)c1C — within 1.5-fold, 41.8 µg/mL (≈ 110 µM)
- COC(=O)c1ccc(NC(=S)NCCCN2CCCC2=O)cc1 — higher, > 50.3 µg/mL
- Cc1cc(NC(=O)NC2CC(=O)N(c3ccc4c(c3)OCCO4)C2)no1 (stereo not given) — within 1.5-fold, 48.5 µg/mL (≈ 135 µM)
- O=S(=O)(O)c1ccc(SCc2ccccc2)nc1 — not separable, > 42.2 µg/mL
- CCOC(=O)Cc1cc(C)[nH]c1C(=O)OCC — within 1.5-fold, 34.7 µg/mL (≈ 145 µM)
- CCNC(=O)COC(=O)c1cc(C)nc2ccccc12 — not separable, > 40.8 µg/mL
- O=C(Nc1ccc(OCC(F)(F)C(F)F)cc1)c1ccncc1 — higher, > 49.2 µg/mL
- O=C(Nc1nnc(C2=COCCO2)o1)c1ccc(F)cc1 — not separable, > 43.7 µg/mL
- Cc1cccc(/C=C(\C#N)C(=O)Nc2ccccn2)c1 — within 1.5-fold, 33.3 µg/mL (≈ 126 µM)
- CCOC(=O)Cc1csc(NC(=O)Nc2ccc(F)cc2)n1 — 10-fold lower, 4.4 µg/mL (≈ 13.6 µM)
- COC(=O)c1cc(Cl)c(NC(=O)Cc2ccccc2)cc1OC — 1.8-fold lower, 25.6 µg/mL (≈ 76.7 µM)
- O=C(CN1CCCCCC1)Nc1cc([N+](=O)[O-])ccc1Cl — 2-fold lower, 22.6 µg/mL (≈ 72.5 µM)
- CN(C(=O)COC(=O)c1cnc(Cl)c(Cl)c1)C1CCCCC1 — within 1.5-fold, 41.7 µg/mL (≈ 121 µM)
- Cc1ccc(NC(=O)CNC(=O)OCc2ccccc2)cc1C — 4.4-fold lower, 10.3 µg/mL (≈ 33 µM)
- COc1ccc(C(=O)CSc2nccn2C)c(OC)c1 — not separable, > 43.9 µg/mL
- CC(C)(C)NC(=O)C1c2ccccc2Oc2ccccc21 — 27-fold lower, 1.7 µg/mL (≈ 6.04 µM)
- CC(C)C(Nc1ccc(C(F)(F)F)cc1[N+](=O)[O-])C(=O)O (stereo not given) — higher, > 45.9 µg/mL
- Cn1cc(C(=O)NCC(=O)Nc2ccccc2Br)cn1 — higher, > 50.6 µg/mL
- Cc1cccc(OCCC(=O)Nc2ccccc2C(N)=O)c1 — within 1.5-fold, 44.2 µg/mL (≈ 148 µM)
- COc1cc(NC(=O)COC(=O)c2ccc([N+](=O)[O-])s2)cc(OC)c1OC — 4.3-fold lower, 10.4 µg/mL (≈ 26.2 µM)
- Cc1cccc2cc3c(nc12)-c1ccccc1C3=O — lower, < 0.5 µg/mL
- CC(C)[C@H](NS(=O)(=O)c1ccccc1)C(=O)OCC(=O)NCc1ccc2c(c1)OCO2 — higher, > 67.3 µg/mL
- CN1C(=O)c2ccccc2N(C)C1c1ccccc1Cl (stereo not given) — not separable, > 43 µg/mL
- O=C(CCC(=O)c1ccc(Cl)cc1)NCc1ccccc1 — 3.2-fold lower, 14.3 µg/mL (≈ 47.4 µM)
- Cc1ccc(N2CC(c3nc4ccccc4n3C)CC2=O)cc1 (stereo not given) — higher, > 45.8 µg/mL
- CCOC(=O)C1C2C=CC3(CN(Cc4ccccc4)C(=O)C13)O2 (stereo not given) — higher, > 47 µg/mL
- O=C(Nc1nccs1)C1=COCCO1 — not separable, > 31.8 µg/mL
- CCOC(=O)N1CCN(CC(=O)c2ccc(O)c(C)c2O)CC1 — within 1.5-fold, 40.7 µg/mL (≈ 126 µM)
- Nc1cccc(CP(=O)(c2ccccc2)c2ccccc2)c1 — higher, > 46.1 µg/mL
- CCc1sc(C(=O)Nc2ccc(OC)c(S(=O)(=O)N3CCOCC3)c2)cc1C — 2-fold lower, 22.9 µg/mL (≈ 53.9 µM)
- NS(=O)(=O)c1ccc(CNC(=S)NC(=O)c2ccco2)cc1 — higher, > 50.9 µg/mL
- O=C1CNC(=O)N1 — not separable, > 15 µg/mL
- NC(=O)c1cc(-c2csc(NCCc3ccccc3)n2)ccc1O — 5.6-fold lower, 8 µg/mL (≈ 23.6 µM)
- COc1ccc(-c2csc(COC(=O)C(C)(C)C)n2)cc1 — lower, < 0.7 µg/mL
- Cc1cccc(NC(=O)NCCCCc2ccccc2)c1 — 110-fold lower, 0.4 µg/mL (≈ 1.42 µM)
- Cc1ccc2c(NC(=S)NC(=O)c3ccccc3)cccc2n1 — 4-fold lower, 11.3 µg/mL (≈ 35.2 µM)
- Cc1ccccc1CC(=O)Nc1ccc2c(c1)CCC2 — lower, < 0.6 µg/mL
- CCOC(=O)C1CCN(C(=O)COC(=O)c2c(C)c(CC)nc3ccccc23)CC1 — 2.2-fold lower, 20.3 µg/mL (≈ 49.2 µM)
- COc1ccc(-n2c(C)cc(C(=O)CN3CCC(C)CC3)c2C)cc1 — within 1.5-fold, 46.3 µg/mL (≈ 136 µM)
